Experimental data as given in US8088426B2, “Kokumi flavour compounds and use” (priority 2005, dated 2012).
“Also recorded” adds a separate entry of the source.

Assays:
Type in all cases: in vivo
trained sensory panel [1] = experiment: Sensory triangle test, kokumi taste in chicken broth; conditions: for Sensory descriptors: pH 6.5, versus broth without additives
Procedure: Unless otherwise indicated, all sensory tests are triangle tests and are performed according to the guidelines in “Amtliche Sammlung von Untersuchungsverfahren nach § 35 LMBG (Lebensmittel-und Bedarfsgegenständegesetz)”; L 00.90 7, Untersuchung von Lebensmitteln, Sensorische Prüfverfahren, Dreiecksprüfung (Übernahme der gleichnahmigen Deutschen Norm DIN ISO 4120, Ausgabe Januar 1995), as follows:
The sensory panel is trained to evaluate the taste of aqueous solutions (4 ml each) of the following standard taste compounds by using a triangle test as described in the literature (Wieser and Belitz, Z. Lebensm. Unters. Forsch., 1975, 159, 65-72): sucrose (40 mmol/L) for sweet taste; citric acid (5 mmol/L) for sour taste; NaCl (12 mmol/L) for salt taste; caffeine (2 mmol/L) for bitter taste; and monosodium glutamate (MSG) (6 mmol/L) for umami taste. For kokumi taste, a solution of GSH (glutathione, 10 mmol/L) in diluted chicken broth concentrate (Goumet Bouillon Huhn, Maggi, Singen, Germany; 3 g/100 g bottled water (Evian®)) is prepared and compared to the taste of chicken broth with no glutathione added.
All sensory analyses are performed in a sensory panel room at 22-25° C. over three different sessions by a trained panel of 8 to 10 individuals.
For recording the taste profiles, samples are prepared as indicated in the examples below. Taste profiles of samples are determined in a triangle test in three different sessions. Panellists refrain from eating or drinking for at least 1 hour prior to the session. At the start of the session and before each trial, the subject rinsed with water and expectorated. The participants receive a set of two blanks and one taste sample. Liquid samples are swirled around in the mouth briefly and expectorated. Solid samples are chewed for 20 seconds and then expectorated. […] Each sample with additive is compared to two reference samples without additives. Kokumi intensity is rated according to a scale from 0 to 5 (with 5 most intensive). The additive is added to a consumable and the sample is homogenised. The samples are presented to the sensory panel directly after homogenisation. The sensory panel in all tests included 8 trained individuals.
Chicken Broth is prepared by dilution of 3 g chicken broth concentrate (Gourmet Bouillon Huhn; Maggi, Singen, Germany) with 100 ml water (Evian). Additives are added as specified in table below.
For each sample, kokumi intensity is rated and panelists are asked to describe sensory characteristics.

trained sensory panel [2] = experiment: Sensory triangle test, kokumi compounds in tomato juice; conditions: for Panelists preferring the sample: panel of 8; for Test results (taste description): versus reference without additives
Procedure: Unless otherwise indicated, all sensory tests are triangle tests and are performed according to the guidelines in “[…] von […]-und Bedarfsgegenständegesetz)”; L 00.90 7, Untersuchung von Lebensmitteln, Sensorische […] Deutschen Norm DIN ISO 4120, Ausgabe Januar 1995), as follows: All sensory analyses are performed in a sensory panel room at 22-25° C. over three different sessions by a trained panel of 8 to 10 individuals. For recording the taste profiles, samples are prepared as indicated in the examples below. Taste profiles of samples are determined in a triangle test in three different sessions. Panellists refrain from eating or drinking for at least 1 hour prior to the session. At the start of the session and before each trial, the subject rinsed with water and expectorated. The participants receive a set of two blanks and one taste sample. Liquid samples are swirled around in the mouth briefly and expectorated. Solid samples are chewed for 20 seconds and then expectorated. […] Each sample with additive is compared to two reference samples without additives. Kokumi intensity is rated according to a scale from 0 to 5 (with 5 most intensive). The additive is added to a consumable and the sample is homogenised. The samples are presented to the sensory panel directly after homogenisation. The sensory panel in all tests included 8 trained individuals. Compounds as indicated in the table below are added to tomato juice (Albi, Germany) in the concentrations indicated below.

trained sensory panel [3] = experiment: Sensory triangle test, kokumi compounds in ketchup; conditions: 2500 ppm; for Panelists indicating more meaty, bouillon-like, intensified overall taste: panel of 8
Procedure: Unless otherwise indicated, all sensory tests are triangle tests and are performed according to the guidelines in “[…] von […]-und Bedarfsgegenständegesetz)”; L 00.90 7, Untersuchung von Lebensmitteln, Sensorische […] Deutschen Norm DIN ISO 4120, Ausgabe Januar 1995), as follows: All sensory analyses are performed in a sensory panel room at 22-25° C. over three different sessions by a trained panel of 8 to 10 individuals. For recording the taste profiles, samples are prepared as indicated in the examples below. Taste profiles of samples are determined in a triangle test in three different sessions. Panellists refrain from eating or drinking for at least 1 hour prior to the session. At the start of the session and before each trial, the subject rinsed with water and expectorated. The participants receive a set of two blanks and one taste sample. Liquid samples are swirled around in the mouth briefly and expectorated. Solid samples are chewed for 20 seconds and then expectorated. […] Each sample with additive is compared to two reference samples without additives. Kokumi intensity is rated according to a scale from 0 to 5 (with 5 most intensive). The additive is added to a consumable and the sample is homogenised. The samples are presented to the sensory panel directly after homogenisation. The sensory panel in all tests included 8 trained individuals. Compounds as indicated in the table below are added to ketchup (Kraft) in a concentration of 2500 ppm.

[4] = additive 10 mmol/L, pH 6.5, scale 0 to 5 (5 most intensive), broth without additives rated 2

Q: With `N[C@@H](CCC(=O)N[C@@H](CS)C(=O)NCC(=O)O)C(=O)O` [GSH, reduced form, Gamma-L-glutamyl-L-cysteinyl-glycine] as the compound, how does the “Kokumi intensity (0-5)” value (trained sensory panel [1]; [4]) read?
A: Its value is 3.5.

Q: Which results are given for `N[C@@H](CCC(=O)O)C(=O)[O-].[Na+]` [MSG, mono sodium glutamate]?
A: Kokumi intensity (0-5) (trained sensory panel [1]; [4]): 2; Sensory descriptors (trained sensory panel [1]; additive 10 mmol/L): higher umami (taste of MSG) intensity; also recorded: no effect on mouthfulness and complexity of the taste profile; also recorded: Increased umami taste

Q: With `[Cl-].[Na+]` [NaCl] as the compound, how does the “Kokumi intensity (0-5)” value (trained sensory panel [1]; additive 30 mmol/L, pH 6.5, scale 0 to 5, broth without additives rated 2) read?
A: Its value is 2.

Q: What about the Sensory descriptors (trained sensory panel [1]; additive 30 mmol/L) of the same compound?
A: The Sensory descriptors was “more salty than the negative control; also recorded: no effect on mouthfulness and complexity of the taste profile; also recorded: increased salty taste”.

Q: For `CCOC(=O)CC(SC[C@H](NC(=O)CC[C@H](N)C(=O)O)C(=O)O)C(=O)OCC` (stereo partly drawn) [S-(α,β-dicarboxyethyl diethylester) γ-L-glutamyl-L-cysteine], which “Kokumi intensity (0-5)” value (trained sensory panel [1]; [4]) is on record?
A: Its value is 4.5.

Q: What about the “Panelists preferring the sample” value (trained sensory panel [2]; 1000 ppm) of the same compound?
A: The value was “all panelists”.

Q: And the “Test results (taste description)” value (trained sensory panel [2]; 1000 ppm)?
A: Its value is “even more pronounced kokumi sensation”.

Q: And the “Panelists indicating more meaty, bouillon-like, intensified overall taste” value (trained sensory panel [3])?
A: The value was 7 out of 8.

Q: Which “Kokumi intensity (0-5)” value (trained sensory panel [1]; [4]) does the source give for `CCOC(=O)CC(SC[C@H](NC(=O)CC[C@H](N)C(=O)O)C(=O)NCC(=O)O)C(=O)OCC` (stereo partly drawn) [S-(α,β-dicarboxyethyl diethylester) γ-L-glutamyl-L-cysteinyl-glycine] here?
A: Its value is 3.5.

Q: What about the “Panelists preferring the sample” value (trained sensory panel [2]; 1000 ppm) of the same compound?
A: The value was 6 out of 8.

Q: What about the “Test results (taste description)” value (trained sensory panel [2]; 1000 ppm) of the same compound?
A: Its value is “more intensive and well-balanced kokumi taste”.

Q: And the “Test results (taste description)” value (trained sensory panel [2]; 5000 ppm)?
A: Its value is “increased with ascending concentrations”.

Q: What about the “Observed effect compared to S-(α,β-dicarboxyethyl diethylester) γ-L-glutamyl-L-cysteine” value (trained sensory panel [3]) of the same compound?
A: Its value is “lower”.

Q: And the “Panelists indicating more meaty, bouillon-like, intensified overall taste” value (trained sensory panel [3])?
A: Its value is 7 out of 8.

Q: `COC(=O)CC(SC[C@H](NC(=O)CC[C@H](N)C(=O)O)C(=O)O)C(=O)OC` (stereo partly drawn) [S-(α,β-dicarboxyethyl dimethylester) γ-L-glutamyl-L-cysteine] was tested. Which “Kokumi intensity (0-5)” value (trained sensory panel [1]; [4]) did it give?
A: The value was 4.5.

Q: `COC(=O)CC(SC[C@H](NC(=O)CC[C@H](N)C(=O)O)C(=O)NCC(=O)O)C(=O)OC` (stereo partly drawn) [S-(α,β-dicarboxyethyl dimethylester) γ-L-glutamyl-L-cysteinyl-glycine] was tested. Which “Kokumi intensity (0-5)” value (trained sensory panel [1]; [4]) did it give?
A: Its value is 3.5.

Q: For `CCCOC(=O)CC(SC[C@H](NC(=O)CC[C@H](N)C(=O)O)C(=O)O)C(=O)OCCC` (stereo partly drawn) [S-(α,β-dicarboxyethyl dipropylester) γ-L-glutamyl-L-cysteine], which Sensory descriptors (trained sensory panel [1]; additive 10 mmol/L) is on record?
A: The Sensory descriptors was “bitter”.

Q: How did the Sensory descriptors (trained sensory panel [1]; additive 10 mmol/L) turn out when `CCCOC(=O)CC(SC[C@H](NC(=O)CC[C@H](N)C(=O)O)C(=O)NCC(=O)O)C(=O)OCCC` (stereo partly drawn) [S-(α,β-dicarboxyethyl dipropylester) γ-L-glutamyl-L-cysteinyl-glycine] was run?
A: The Sensory descriptors was “bitter”.
